ChEMBL document CHEMBL1201862, “PubChem BioAssay data set” (2004)
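96-well plates; 48 h exposure; 5 concentrations. Endpoints by linear interpolation between flanking doses. Not reached: highest tested concentration assigned. The concentration for 50% growth inhibition is given as GI50.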 The source made the active and inactive calls. Rule as the data show it: active = GI50 up to about 1.1 µM and inactive = higher.

Experiments:
Test in all cases: growth of human tumour cells (NCI), 48 h
786-0 = tested on: 786-0
CAKI-1 = tested on: CAKI-1
EKVX = tested on: EKVX
HCC 2998 = tested on: HCC 2998
HOP-62 = tested on: HOP-62
IGROV-1 = tested on: IGROV-1
LOX IMVI = tested on: LOX IMVI
M14 = tested on: M14
Malme-3M = tested on: Malme-3M
NCI-H460 = tested on: NCI-H460
OVCAR-3 = tested on: OVCAR-3
OVCAR-4 = tested on: OVCAR-4
RXF 393 = tested on: RXF 393
SK-MEL-2 = tested on: SK-MEL-2
SN12C = tested on: SN12C
UO-31 = tested on: UO-31
K562 = tested on: K562

SMILES	GI50 (786-0)	GI50 (CAKI-1)	GI50 (EKVX)	GI50 (HCC 2998)	GI50 (HOP-62)	GI50 (IGROV-1)	GI50 (LOX IMVI)	GI50 (M14)	GI50 (Malme-3M)	GI50 (NCI-H460)	GI50 (OVCAR-3)	GI50 (OVCAR-4)	GI50 (RXF 393)	GI50 (SK-MEL-2)	GI50 (SN12C)	GI50 (UO-31)	GI50 (K562)
CCCCCCC(=O)OC[n+]1ccc2c(C)c3[nH]c4ccccc4c3c(C)c2c1	0.418 µM (active)	1.58 µM (inactive)	0.403 µM (active)	0.826 µM (active)	2.08 µM (inactive)	1.47 µM (inactive)	0.537 µM (active)	1.29 µM (inactive)	1.61 µM (inactive)	0.0728 µM (active)	1.21 µM (inactive)	1.06 µM (active)	1 µM (active)	5.38 µM (inactive)	0.404 µM (active)	3.42 µM (inactive)	
CCOC(=O)CC1=Nc2ccccc2SC1	> 100 µM (inactive)	> 100 µM (inactive)	> 100 µM (inactive)	> 100 µM (inactive)	> 100 µM (inactive)	> 100 µM (inactive)	> 100 µM (inactive)	> 100 µM (inactive)	> 100 µM (inactive)	> 100 µM (inactive)	> 100 µM (inactive)	> 100 µM (inactive)	> 100 µM (inactive)	> 100 µM (inactive)	> 100 µM (inactive)	> 100 µM (inactive)	
CCSc1nnc(CSc2nc(-c3ccccc3)c(-c3ccccc3)[nH]2)n1-c1ccccc1	19.8 µM (inactive)	23.7 µM (inactive)	24.4 µM (inactive)	20.8 µM (inactive)	20.2 µM (inactive)	20.9 µM (inactive)	22.9 µM (inactive)	19 µM (inactive)	20 µM (inactive)	18.9 µM (inactive)	15.9 µM (inactive)		25.8 µM (inactive)	21.7 µM (inactive)	15.8 µM (inactive)	17.1 µM (inactive)	25.3 µM (inactive)
COc1c(C)cc2c(c1O)C1C3[C@H]4SC[C@@]5(NCCC6=C5NC5C=CC=CC65)C(=O)OCC(c5c6c(c(C)c(OC(C)=O)c54)OCO6)N3[C@@H](O)C(C2)N1C (stereo partly specified)	< 0.01 µM (active)		0.0297 µM (active)	< 0.01 µM (active)	< 0.01 µM (active)	< 0.01 µM (active)	< 0.01 µM (active)	< 0.01 µM (active)	< 0.01 µM (active)	< 0.01 µM (active)	< 0.01 µM (active)		< 0.01 µM (active)	< 0.01 µM (active)	< 0.01 µM (active)	< 0.01 µM (active)	< 0.01 µM (active)
COc1cccc2cc(C)c(C(=O)c3ccccc3)nc12	> 100 µM (inactive)	> 100 µM (inactive)	> 100 µM (inactive)	> 100 µM (inactive)	> 100 µM (inactive)	> 100 µM (inactive)	> 100 µM (inactive)	> 100 µM (inactive)	> 100 µM (inactive)		> 100 µM (inactive)	> 100 µM (inactive)	> 100 µM (inactive)	> 100 µM (inactive)	> 100 µM (inactive)	> 100 µM (inactive)	> 100 µM (inactive)
Cc1cc(C)nc(NS(=O)(=O)c2ccc(Nc3c4ccccc4nc4c(C(=O)NCCN(C)C)ccc(Cl)c34)cc2)n1	3.73 µM (inactive)		4.4 µM (inactive)	13.8 µM (inactive)	2.85 µM (inactive)	2.06 µM (inactive)	0.711 µM (active)	2.9 µM (inactive)		0.39 µM (active)	7.64 µM (inactive)	1.1 µM (active)	2.09 µM (inactive)	3.61 µM (inactive)	1.45 µM (inactive)	1.71 µM (inactive)	1.14 µM (inactive)
COCC1C(=O)c2cc3c(cc2C12C=CC1(C=C2)OCCO1)OCO3 (stereo unspecified)	2.13 µM (inactive)	15.9 µM (inactive)	16.6 µM (inactive)		21.6 µM (inactive)	15.4 µM (inactive)		3.38 µM (inactive)	13.8 µM (inactive)	13.8 µM (inactive)	13.7 µM (inactive)	14.2 µM (inactive)	8.85 µM (inactive)	11.7 µM (inactive)	10.9 µM (inactive)		2 µM (inactive)
O=C(/C(=C\c1ccc(Cl)cc1)c1ccccc1)c1ccccc1	79.8 µM (inactive)		39.3 µM (inactive)	40.5 µM (inactive)	63.2 µM (inactive)	> 100 µM (inactive)	29.9 µM (inactive)	73.5 µM (inactive)	57 µM (inactive)	53.8 µM (inactive)		26.3 µM (inactive)		11.7 µM (inactive)	> 100 µM (inactive)	65.2 µM (inactive)	54.1 µM (inactive)
N/N=c1/nc2n(c3ncccc13)C=CNN2	> 100 µM (inactive)	> 100 µM (inactive)	> 100 µM (inactive)	> 100 µM (inactive)	> 100 µM (inactive)	> 100 µM (inactive)	> 100 µM (inactive)		> 100 µM (inactive)	> 100 µM (inactive)	> 100 µM (inactive)		> 100 µM (inactive)	> 100 µM (inactive)	> 100 µM (inactive)		> 100 µM (inactive)
